The test system of data set [1] is B16 (melanoma/mouse). Kind of data set: In vitro cytotoxicity (MTT cell survival), B16. Format: cell-based. The conditions noted are these: B16, 96 h exposure; for IC50: Mus musculus. How it is done: (§1) Cells were passaged two to three times per week. Cellular viability was examined by staining with trypan blue and only flasks where cell viability was >95% were used to determine cytotxicity.
(§2) Exponentially growing cells (1-3×10^3 cells per 100 μl) were seeded in 96-well plates and incubated for 16 h. Cells were then exposed continuously to various concentrations of compounds of Formula I in serum-supplemented medium. Cell survival was evaluated 96 h later by replacing the culture media with 150 μl fresh medium containing 10 mM 4-(2-hydroxyethyl)-1-piperazineethanesulfonic acid buffer, pH 7.4. Next, 50 μl of 2.5 mg/ml of 3-(4,5-dimethylthiazo-2-yl)-2,5-diphenyltetrazolium bromide (MTT; Sigma, St. Louis, Mo.) in phosphate buffer solution, pH 7.4, was added. After 3-4 h of incubation at 37° C., the medium and MTT was removed, and 200 μl of dimethylsulfoxide was added to dissolve the precipitate of reduced MTT followed by addition of 25 μl glycine buffer (0.1 M glycine plus 0.1 M NaCl, pH 10.5). The absorbance was determined at 570 nm with a microplate reader (BIORAD). Cell survival was estimated as % of cells treated with the vehicle alone.

In data set [2] the test system is HCT116 (colon/human). Nature of the data set: In vitro cytotoxicity (MTT cell survival), HCT116. Format: cell-based. Conditions: for In Vitro Cytotoxicity Data (Log M): HCT116, 96 h exposure; for IC50: Homo sapiens, HCT-116, HCT116, 96 h exposure, mean from 3 independent experiments. As for the experimental part:
as §1, §2

In data set [3] the test system is P388 (leukemia/mouse). Nature of the data set: In vitro cytotoxicity (MTT cell survival), P388. The data set is classed as cell-based. Conditions: P388, 96 h exposure; for IC50: Mus musculus. How it is done:
as §1, §2

For data set [4], the system named is MDA-MD-231 (breast/human). Nature of the data set: In vitro cytotoxicity (MTT cell survival), MDA-MD-231. Format: cell-based. Conditions: MDA-MD-231, 96 h exposure; for IC50: Homo sapiens, mean from 3 independent experiments. How it is done: as §1, §2
The nature of data set [5]: In vitro cytotoxicity (MTT cell survival), HRE. Format: cell-based, human. Conditions: human, HRE normal renal cells, 96 h exposure. How it is done: as §1, §2
Data set [6] relates to HRE (renal/normal, human). Nature of the data set: In vitro cytotoxicity (MTT cell survival), HRE. Format: cell-based. Conditions: HRE normal renal cells, 96 h exposure. How it is done:
as §1, §2

Data set [7] deals with EKVX (lung/human). Kind of data set: In vitro cytotoxicity (MTT cell survival), EKVX. The conditions noted are these: 96 h exposure; for IC50: Homo sapiens. Format: cell-based. As for the experimental part: as §1, §2
Data set [8] has as its system A498 (renal/human). Kind of data set: In vitro cytotoxicity (MTT cell survival), A498. The data set is classed as cell-based. The conditions noted are these: A498, 96 h exposure; for IC50: Homo sapiens, mean from 3 independent experiments. How it is done:
as §1, §2

Data set [9] has as its system T24 (bladder/human). Kind of data set: In vitro cytotoxicity (MTT cell survival), T24. Format: cell-based. The conditions noted are these: T24, 96 h exposure; for IC50: Homo sapiens. How it is done: as §1, §2
In data set [10] the test system is SF-295 (glioblastoma/human). Kind of data set: In vitro cytotoxicity (MTT cell survival), SF-295. Format: cell-based. Conditions: SF-295, 96 h exposure; for IC50: Homo sapiens. How it is done:
as §1, §2

The test system of data set [11] is PC3 (prostate/human). Nature of the data set: In vitro cytotoxicity (MTT cell survival), PC3. Conditions: PC3, 96 h exposure; for IC50: Homo sapiens, mean from 3 independent experiments. Format: cell-based. As for the experimental part: as §1, §2

The structures appear in SMILES notation.

Consider `COC(=O)C(C(C)OC)N(C)C(=O)C1(N(O)C(=O)/C=C/C=C/C=C/C=C\CNC(=O)C(C)(C)C(O)\C(C)=C/C=C\C=C\Cc2cnco2)COCO1` (stereo not shown) [Compound 1], for which the “In Vitro Cytotoxicity Data (Log M)” value in [1] is given as “(Log −4.34 M) Log M”; in data set [2], “(Log −4.60 M) Log M”; in [3], “(Log −5.19 M) Log M”; in data set [4] it was “(Log −4.88 M) Log M”; in [6], “(Log −5.05 M) Log M”; in data set [7], “(Log −4.42 M) Log M”. In addition, the “In Vitro Cytotoxicity Data (Log M)” value in [8] is on record as “(Log −4.78 M) Log M”; in data set [9], “(Log −4.51 M) Log M”; in data set [10], “(Log −4.56 M) Log M”; in data set [11], “(Log −4.69 M) Log M”. Besides, the IC50 in [1] stood at 44.8 µM; in [2] it was 24.8 µM; in [3], 6.3 µM; in [4], 12.9 µM; in data set [7] it was 37.4 µM; in data set [8] it was 15.6 µM. In addition, the IC50 in [9] came to 30.5 µM; in data set [10], 27.1 µM; in data set [11] it was 20.7 µM. The same molecule gave an IC50 at 96 h in [5] of 8.8 µM.

Turning to `COC(=O)C(C(C)OC)N(C)C(=O)C1(N(O)C(=O)/C=C/C=C/C=C/C=C\CNC(=O)C(C)(C)C(O)\C(C)=C/C=C\C=C\Cc2cnc(C)o2)COCO1` (stereo not shown) [Compound 2], the “In Vitro Cytotoxicity Data (Log M)” value is recorded as “(Log −4.34 M) Log M” in data set [1]; “(Log −4.56 M) Log M” in [2]; “(Log −5.05 M) Log M” in [3]; “(Log −4.88 M) Log M” in data set [4]; “(Log −4.69 M) Log M” in data set [6]; “(Log −4.62 M) Log M” in data set [7]. Besides, the “In Vitro Cytotoxicity Data (Log M)” value in data set [8] is “(Log −4.88 M) Log M”; in data set [9] it was “(Log −4.72 M) Log M”; in data set [10], “(Log −4.75 M) Log M”; in data set [11] it was “(Log −4.67 M) Log M”. The IC50 worked out at 45.5 µM in data set [1]; 27.5 µM in data set [2]; 8.1 µM in data set [3]; 13.2 µM in data set [4]; 23.9 µM in data set [7]; 13.1 µM in data set [8]. For the same molecule, the results for the IC50 in data set [9], in [10] and in data set [11] were 18.9 µM, 17.5 µM and 20.7 µM, respectively. This molecule also had a half-inhibitory concentration (IC50) at 96 h in [5] of 20.2 µM.

The record behind these values is patent US7312339B2, “Polyene oxazoles and processes for their preparation” (Thallion Pharmaceuticals Inc., priority 2003, dated 2007).
